Key:
[1] = Encapsulation efficiency of RNA in nanoparticle compositions (RIBOGREEN assay); type: physicochemical; details: for % EE: compositions for subcutaneous administration
Outline: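 Lipid nanoparticles (ionisable lipid:DSPC:cholesterol:PEG-DMG 50:10:38.5:1.5 mol %) carrying N1-methylpseudouridine luciferase or hEPO mRNA diluted to about 5 μg/mL in TE, pH 7.5, with or without 2% Triton X-100, 15 min at 37° C. RiboGreen fluorescence (ex ~480, em ~520 nm) blank-subtracted; free RNA = intact/disrupted signal.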

[2] = test system: IL-6, IP-10; experiment: Cytokine induction (IL-6, IP-10) in mice 6 hours after intravenous administration; type: in vivo; design: unit not given here; details: intravenous 0.5 mpk
Outline: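 Mice dosed intravenously with nanoparticle compositions at 0.5 mpk; serum cytokine concentrations (IL-6, IP-10) measured at 6 hours. MC3 formulation and PBS controls run alongside.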

[3] = Residual lipid levels in rat liver and spleen (UPLC-MS); type: in vivo; details: for % Lipid Remaining in liver, 48 h, 2 mpk: assuming 300 g rat and 15 g liver
Experimental: At 48 h liver tissue was harvested for lipid quantification. To pre-weighed tissues, Milli-Q water was added (900 μL water per 100 mg tissue). Tissues were homogenized using an Omni probe homogenizer until uniform. 50 μL of samples and matrix calibration standards were aliquoted into a 96-well plate. 50 μL of blank matrix for matrix blanks and control blanks were aliquoted. 400 μL IS spiking solution were manually added to all samples except matrix blanks. 400 μL of 50:50 ACN:IPA were manually added to matrix-blanks. The plate was covered and the samples vortexed and centrifuged for 5 minutes at >3000 rpm. 200 μL of the samples were transferred into a clean 96-well plate for analysis. Samples were analyzed on a Waters Acquity UPLC using a Higgins Analytical Clipeus C8 column ([…], 30×2.1 mm) and a gradient of either 70-95% or 60-95% (Mobile Phase A: 5 mM ammonium formate in 50:50:1 H2O:MeOH:formic acid; Mobile Phase B: 5 mM ammonium formate in 100:1 MeOH:formic acid) over 1.3 min at […] (column temperature 55° C.). Detection was based on electrospray ionization (ESI) in positive mode using a Sciex API5500 Mass Spectrometer.
The expression of hEPO in rats intravenously administered a nanoparticle composition at a dose of 0.2 mpk or 2.0 mpk was measured at 6 hours. Table 16 summarize the ratio of hEPO expression levels using various nanoparticle compositions as compared to the hEPO expression level using MC3 formulation and the lipid levels in the liver measured 48 hours after administration, as described above. Tables 17 and 18 summarize the lipid levels in the liver and spleen measured 48 hours after administration of Compounds 28, 33, 53, and 54. Liver and spleen levels represent the average values calculated for 3 rats in each group. As is shown in Tables 17 and 18, less than 10% of Compounds 28, 33, 53, and 54 remained in the liver after 48 hours, while greater than 60% of MC3 remained.
Table 19A summarizes the hEPO expression, IP-10 induction, liver and spleen levels, and alanine aminotransferase (ALT) and aspartate aminotransferase (AST) measured upon intravenous administration of formulations including Compounds 48, 49, and 50 to rat at 0.2 and 2 mpk and hEPO mRNA. hEPO concentrations were measured 6 hours after administration, while cytokine induction and liver and spleen levels were measured 48 hours after administration. hEPO and IP-10 concentrations are presented in pg/ml, while liver levels are provided in ng/g. ALT and AST levels are presented in international units.
The expression of hEPO and lipid levels in the liver and spleen in rats intravenously administered a nanoparticle composition at a dose of 0.2 mpk was measured at various time points. Compounds 18 and 25 were selected for comparison with MC3. Lipids were formulated according to the standard MC3 formulation described above. Rats were administered intravenously a single 0.2 mpk dose and expression monitored at 0.25, 0.5, 1, 2, 4, 8, 24, and 48 hours after administration.

[4] = Table 1A, lipid:DSPC:cholesterol:PEG-DMG 50:10:38.5:1.5 mol %
[5] = Table 1B, formulated with hEPO mRNA

| Molecule | EE [1, 4] [%] | Cytokine induction, IL-6 [2] | Cytokine induction, IP-10 [2] | % Lipid Remaining in liver, 48 h, 2 mpk ([3]; rats, 48 h) [%] | EE [1, 5] [%] | further results |
| --- | --- | --- | --- | --- | --- | --- |
| CCCCCCCCCN(CCO)CCCCCCCC(=O)OC(CCCCCCCC)CCCCCCCC [Compound 3, Heptadecan-9-yl 8-((2-hydroxyethyl)(nonyl)amino)octanoate] | 92.25 | 282.88 | 2052.87 | 14 | – | – |
| CCCCCCCCCOC(=O)CCCCCCCN(CCO)CCCCCCCC(=O)OC(CCCCCCCC)CCCCCCCC [Compound 18, Heptadecan-9-yl 8-((2-hydroxyethyl)(8-(nonyloxy)-8-oxooctyl)amino)octanoate] | – | 78.76 | 139.92 | 0.018 | 96.95 | – |
| CCCCCC/C=C\COC(=O)CCCCCCCN(CCO)CCCCCCCC(=O)OC(CCCCCCCC)CCCCCCCC [Compound 24, Heptadecan-9-yl (Z)-8-((2-hydroxyethyl) (8-(non-2-en-1-yloxy)-8-oxooctyl)amino)octanoate] | – | 163.53 | 1172.93 | 0.016 | – | – |
| CCCCCCCCCCCOC(=O)CCCCCN(CCO)CCCCCCCC(=O)OC(CCCCCCCC)CCCCCCCC [Compound 25, Heptadecan-9-yl 8-((2-hydroxyethyl)(6-oxo-6-(undecyloxy)hexyl)amino)octanoate] | 95.80 | 233.45 | 1194.13 | 1.32 | 97.92 | – |
| CCCCCCCCCOC(=O)CCCN(CCO)CCCCCCCC(=O)OC(CCCCCCCC)CCCCCCCC [Compound 26, Heptadecan-9-yl 8-((2-hydroxyethyl)(4-(nonyloxy)-4-oxobutyl)amino) octanoate] | – | 273.56 | 2330.01 | 20 | – | – |
| CCCCCCCCCOC(=O)CCCCCCCN(CCO)CCCCCCCOC(=O)C(CCCCCCCC)CCCCCCCC [Compound 30, 7-((2-Hydroxyethyl)(8-(nonyloxy)-8-oxooctyl)amino)heptyl 2-octyldecanoate] | 95.69 | 152.51 | 1638.77 | <0.01 | 96.32 | – |
| CCCCCCCCC(C)OC(=O)CCCCCCCN(CCO)CCCCCCCC(=O)OC(CCCCCCCC)CCCCCCCC (stereo not shown) [Compound 48, decan-2-yl 8-((8-(heptadecan-9-yloxy)-8-oxooctyl)(2-hydroxyethyl)amino)octanoate] | 96.55 | – | – | 7.22 | – | – |
| CCCCCC=CCC=CCCCCCCCCC(CCCCCCCCC=CCC=CCCCCC)OC(=O)CCCN(C)C (stereo not shown) [MC3, heptatriaconta-6,9,28,31-tetraen-19-yl 4-(dimethylamino)butanoate, reference compound] | 97.3 | 124.42 | 504.90 | 87 | 99.01 | % EE ([1]; Table 1C): 98.2%; % EE ([1]; Table 1D, # formulated with hEPO mRNA): 98.7%; % EE ([1]; Table 1E): 98%; EE ([1]; lipid:DSPC:Chol:PEG-DMG (50:10:38.5:1.5), hEPO mRNA): 97.22%; EE ([1]; nanoparticle composition with hEPO mRNA (Table 30)): 91.66%; % dose remaining, liver, 24 h ([3]; Table 19B, liver, 24 h): 44%; % lipid remaining in liver after 48 hours ([3]; liver, 48 hours): 87%; % remaining dose in liver, 48 h ([3]; rats, 48 h): 74%; Lipid remaining in the liver after 48 hours ([3]; rats, intravenous, 0.2 mpk or 2.0 mpk, 48 hours): greater than 60% |
| Nonyl 8-((6-(heptadecan-9-yloxy)-6-oxohexyl)(2-hydroxyethyl)amino) octanoate [Compound 27] | 94.27 | 161.07 | 345.56 | – | – | – |
